Target: Tumor necrosis factor (Homo sapiens, UniProt P01375)
Test: TNF-alpha RELEASE: Human peripheral blood mononuclear cells (PBMC) were isolated from fresh buffy coats by density centrifugation using lymphoprep tubes (Medinor). Frozen PBMC's were washed in serum free assay buffer (RPMI1640 with 25 mM HEPES, 1% pen/strep, […], 0.5% human serum albumin) and living cells counted. Lipopolysaccharide (1 microg/ml; SIGMA) was added to the cells which were then transferred to 384 well tissue culture plates (5×105 c/ml) containing titrated test compounds. The cells were incubated for 18 hours at 37° C. in serum free assay buffer and the level of TNFalpha in the supernatant was quantitated by AlphaLISA (PerkinElmer) by measuring fluorescence intensity at 615 nm.Results were expressed as IC50 values calculated from inhibition curves using as controls the secretion in LPS stimulated wells and the secretion in cells incubated with 10 microM of a PDE4 inhibitor reference compound.

Sequence of Tumor necrosis factor (P01375 whole entry): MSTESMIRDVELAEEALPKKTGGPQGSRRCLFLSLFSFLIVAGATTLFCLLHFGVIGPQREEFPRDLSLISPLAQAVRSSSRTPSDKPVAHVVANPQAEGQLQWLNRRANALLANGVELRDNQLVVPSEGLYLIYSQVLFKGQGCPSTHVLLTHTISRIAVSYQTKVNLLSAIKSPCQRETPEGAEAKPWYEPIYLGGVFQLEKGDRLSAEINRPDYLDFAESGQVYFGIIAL

CC(=O)N1CC[C@@H](Nc2nc(N3CC(OC(=O)C4CCOCC4)C3)nc3c2[S@+]([O-])CC3)C1
IC50: > 500 nM
